Like-named read-outs stand apart in the source and are kept apart here.
Assay: Plasma, vaginal secretion and vaginal tissue exposure after oral administration in mice
Format: in vivo
Conditions: for AUC(0-t): po
Description: Female CD-1 mice (n=3/time point/dose group) were given SCY-078 via oral gavage for either one, two, or eight total doses ranging from 10 to 80 mg/kg, consisting of QD (once per day) and BID (twice per day) dose regimens, with and without loading doses, as follows: • QD (Day 1): 10, 20, 40, 80 mg/kg • BID (Day 1): 10/5, 20/10, 40/20, 80/40 mg/kg • BID repeat dose (Days 1-4): 10/5, 20/10 40/20, 80/40 mg/kg on Day 1; 5, […] mg/kg BID on Days 2 to 4
Blood, vulvo-vaginal tissue and vaginal secretions were collected pre-dose, and at 1, 2, 4, 6, 8, 12, 18 and 24 hours post-dose, following the final dose administered per group. Samples were then processed, extracted via protein precipitation and analyzed for SCY-078 via LC MS/MS.

`CC(C)[C@@H](C)[C@@]1(C)CC[C@]2(C)[C@H]3CC[C@@H]4[C@@]5(COC[C@]4(C)[C@@H](OC[C@](C)(N)C(C)(C)C)[C@H](n4ncnc4-c4ccncc4)C5)C3=CC[C@@]2(C)[C@@H]1C(=O)O` [SCY-078] showed an AUC(0-t) (female, CD-1, mouse, plasma, 10 mg/kg, oral gavage, QD 10 mg/kg (Day 1), read-out: AUC0-24 Plasma) of 8330 ng·h/mL, an AUC(0-t) (female, CD-1, mouse, plasma, 20 mg/kg, oral gavage, QD 20 mg/kg (Day 1), read-out: AUC0-24 Plasma) of 19700 ng·h/mL and an AUC(0-t) (female, CD-1, mouse, plasma, 40 mg/kg, oral gavage, QD 40 mg/kg (Day 1), read-out: AUC0-24 Plasma) of 42300 ng·h/mL. For the same compound, the AUC(0-t) (female, CD-1, mouse, plasma, 80 mg/kg, oral gavage, QD 80 mg/kg (Day 1), read-out: AUC0-24 Plasma) was 75500 ng·h/mL, the AUC(0-t) (female, CD-1, mouse, plasma, BID regimen, 10/5-80/40 mg/kg, read-out: AUC0-24 in plasma, range over doses) was 7470 to 101000 ng·h/mL and the AUC(0-t) (female, CD-1, mouse, plasma, BID repeat dose regimen (Days 1-4), read-out: AUC0-24 in plasma, range over doses) was 7470 to 101000 ng·h/mL. For the same compound, the AUC(0-t) (female, CD-1, mouse, plasma, QD regimen, 10-80 mg/kg, read-out: AUC0-24 in plasma, range over doses) was 8330 to 75500 ng·h/mL, the AUC(0-t) (female, CD-1, mouse, plasma, oral gavage, BID 10/5 mg/kg (Day 1), read-out: AUC0-24 Plasma) was 7470 ng·h/mL and the AUC(0-t) (female, CD-1, mouse, plasma, oral gavage, BID 20/10 mg/kg (Day 1), read-out: AUC0-24 Plasma) was 16600 ng·h/mL. The AUC(0-t) (female, CD-1, mouse, plasma, oral gavage, BID 40/20 mg/kg (Day 1), read-out: AUC0-24 Plasma) was 46500 ng·h/mL, the AUC(0-t) (female, CD-1, mouse, plasma, oral gavage, BID 80/40 mg/kg (Day 1), read-out: AUC0-24 Plasma) was 101000 ng·h/mL and the AUC(0-t) (female, CD-1, mouse, plasma, oral gavage, BID repeat-dose 10/5 mg/kg (Days 1-4), read-out: AUC0-24 Plasma) was 5120 ng·h/mL. For the same compound, the AUC(0-t) (female, CD-1, mouse, plasma, oral gavage, BID repeat-dose 20/10 mg/kg (Days 1-4), read-out: AUC0-24 Plasma) was 14600 ng·h/mL, the AUC(0-t) (female, CD-1, mouse, plasma, oral gavage, BID repeat-dose 40/20 mg/kg (Days 1-4), read-out: AUC0-24 Plasma) was 53000 ng·h/mL and the AUC(0-t) (female, CD-1, mouse, plasma, oral gavage, BID repeat-dose 80/40 mg/kg (Days 1-4), read-out: AUC0-24 Plasma) was 143000 ng·h/mL. The AUC(0-t) (female, CD-1, mouse, vaginal secretion, 10 mg/kg, oral gavage, QD 10 mg/kg (Day 1), read-out: AUC0-24 Vaginal Secretion) was 1320 ng·h/mL, the AUC(0-t) (female, CD-1, mouse, vaginal secretion, 20 mg/kg, oral gavage, QD 20 mg/kg (Day 1), read-out: AUC0-24 Vaginal Secretion) was 1870 ng·h/mL and the AUC(0-t) (female, CD-1, mouse, vaginal secretion, 40 mg/kg, oral gavage, QD 40 mg/kg (Day 1), read-out: AUC0-24 Vaginal Secretion) was 4410 ng·h/mL. For the same compound, the AUC(0-t) (female, CD-1, mouse, vaginal secretion, 80 mg/kg, oral gavage, QD 80 mg/kg (Day 1), read-out: AUC0-24 Vaginal Secretion) was 12300 ng·h/mL, the AUC(0-t) (female, CD-1, mouse, vaginal secretion, oral gavage, BID 10/5 mg/kg (Day 1), read-out: AUC0-24 Vaginal Secretion) was 1550 ng·h/mL and the AUC(0-t) (female, CD-1, mouse, vaginal secretion, oral gavage, BID 20/10 mg/kg (Day 1), read-out: AUC0-24 Vaginal Secretion) was 4210 ng·h/mL. It also gave an AUC(0-t) (female, CD-1, mouse, vaginal secretion, oral gavage, BID 40/20 mg/kg (Day 1), read-out: AUC0-24 Vaginal Secretion) of 10600 ng·h/mL, an AUC(0-t) (female, CD-1, mouse, vaginal secretion, oral gavage, BID 80/40 mg/kg (Day 1), read-out: AUC0-24 Vaginal Secretion) of 17800 ng·h/mL and an AUC(0-t) (female, CD-1, mouse, vaginal secretion, oral gavage, BID repeat-dose 10/5 mg/kg (Days 1-4), read-out: AUC0-24 Vaginal Secretion) of 4320 ng·h/mL. It also gave an AUC(0-t) (female, CD-1, mouse, vaginal secretion, oral gavage, BID repeat-dose 20/10 mg/kg (Days 1-4), read-out: AUC0-24 Vaginal Secretion) of 8630 ng·h/mL, an AUC(0-t) (female, CD-1, mouse, vaginal secretion, oral gavage, BID repeat-dose 40/20 mg/kg (Days 1-4), read-out: AUC0-24 Vaginal Secretion) of 38800 ng·h/mL and an AUC(0-t) (female, CD-1, mouse, vaginal secretion, oral gavage, BID repeat-dose 80/40 mg/kg (Days 1-4), read-out: AUC0-24 Vaginal Secretion) of 120000 ng·h/mL. The AUC(0-t) (female, CD-1, mouse, vaginal secretions, BID regimen, 10/5-80/40 mg/kg, read-out: AUC0-24 in vaginal secretions, range over doses) was 1550 to 17800 ng·h/mL, the AUC(0-t) (female, CD-1, mouse, vaginal secretions, BID repeat dose regimen (Days 1-4), read-out: AUC0-24 in vaginal secretions, range over doses) was 4320 to 120000 ng·h/mL and the AUC(0-t) (female, CD-1, mouse, vaginal secretions, QD regimen, 10-80 mg/kg, read-out: AUC0-24 in vaginal secretions, range over doses) was 1320 to 12300 ng·h/mL. For the same compound, the Kp (female, CD-1, mouse, vaginal tissue, oral, repeat-dosing, read-out: accumulation in vaginal tissue relative to plasma) was > 10, the “AUC0-24 Vaginal Tissue” value (oral gavage, BID 10/5 mg/kg (Day 1)) was 24.6 µg·h/g and the “AUC0-24 Vaginal Tissue” value (oral gavage, BID 20/10 mg/kg (Day 1)) was 72.9 µg·h/g. The “AUC0-24 Vaginal Tissue” value (oral gavage, BID 40/20 mg/kg (Day 1)) was 204 µg·h/g, the “AUC0-24 Vaginal Tissue” value (oral gavage, BID 80/40 mg/kg (Day 1)) was 337 µg·h/g and the “AUC0-24 Vaginal Tissue” value (oral gavage, BID repeat-dose 10/5 mg/kg (Days 1-4)) was 24.4 µg·h/g. The “AUC0-24 Vaginal Tissue” value (oral gavage, BID repeat-dose 20/10 mg/kg (Days 1-4)) was 71.6 µg·h/g, the “AUC0-24 Vaginal Tissue” value (oral gavage, BID repeat-dose 40/20 mg/kg (Days 1-4)) was 275 µg·h/g and the “AUC0-24 Vaginal Tissue” value (oral gavage, BID repeat-dose 80/40 mg/kg (Days 1-4)) was 1798 µg·h/g. The “AUC0-24 Vaginal Tissue” value (oral gavage, QD 10 mg/kg (Day 1)) was 26.7 µg·h/g, the “AUC0-24 Vaginal Tissue” value (oral gavage, QD 20 mg/kg (Day 1)) was 53.6 µg·h/g and the “AUC0-24 Vaginal Tissue” value (oral gavage, QD 40 mg/kg (Day 1)) was 187 µg·h/g. The “AUC0-24 Vaginal Tissue” value (oral gavage, QD 80 mg/kg (Day 1)) was 171 µg·h/g.

— patent US20260000656A1, “ANTIFUNGAL AGENTS WITH ENHANCED ACTIVITY IN ACIDIC PH” (Scynexis, Inc., priority 2017, published 2026)
